# Reference: ChEMBL document CHEMBL3098080, “Replacement of amide with bioisosteres led to a new series of potent adenosine A2A receptor antagonists” (Bioorg Med Chem Lett, 2014)
# Tests used:
# Adenosine receptor A2a [1] = molecular target: T1, Adenosine receptor A2a (Homo sapiens, UniProt P29274); assay: Inhibition of adenosine A2A receptor (unknown origin) at 100 umol/L relative to control
# Adenosine receptor A2a [2] = molecular target: T1, Adenosine receptor A2a; assay: Displacement of [3H]-ZM241385 from human adenosine A2A receptor expressed in HEK293 cells; assay type: cell-based
# [3] = Chemical stability in 0.2N HCl in methanol after 24 hrs; assay type: physicochemical
# T1 sequence (P29274 whole entry): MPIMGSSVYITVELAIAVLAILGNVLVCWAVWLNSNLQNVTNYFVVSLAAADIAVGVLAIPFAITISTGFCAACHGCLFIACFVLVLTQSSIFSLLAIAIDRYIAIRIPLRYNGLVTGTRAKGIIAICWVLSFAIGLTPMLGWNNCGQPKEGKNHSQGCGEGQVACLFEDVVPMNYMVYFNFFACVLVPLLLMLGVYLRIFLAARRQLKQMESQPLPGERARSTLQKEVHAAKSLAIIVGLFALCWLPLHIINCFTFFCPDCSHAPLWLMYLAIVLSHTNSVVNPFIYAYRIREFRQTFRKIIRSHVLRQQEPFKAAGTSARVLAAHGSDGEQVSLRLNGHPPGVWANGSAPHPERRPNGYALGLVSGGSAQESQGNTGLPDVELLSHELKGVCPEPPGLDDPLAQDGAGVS
Compound,inhibition (Adenosine receptor A2a [1]) [%],Ki (Adenosine receptor A2a [2]) [µM],Stability [3]
Cc1cc(C)n(-c2nc(Nc3nccs3)cc(-n3cccn3)n2)n1,58,,
COC[C@H]1CCCN1c1cc(NC(C)=O)nc(-n2nc(C)cc2C)n1,123,0.015,
Cc1cc(C)n(-c2nc(Nc3ccccn3)cc(-n3cccn3)n2)n1,117,0.0092,
Cc1cc(C)n(-c2nc(NCC(F)(F)F)cc(-n3cccn3)n2)n1,117,0.052,
COCCOc1ccc(N2CCN(CCn3ncc4c3nc(N)n3nc(-c5ccco5)nc43)CC2)cc1 [PRELADENANT],120,0.001,
Cc1cc(C)n(-c2nc(Nc3ncccn3)cc(N3CCc4ccccc4C3)n2)n1,-5,,
Cc1cc(C)n(-c2nc(Nc3cnccn3)cc(N3CCc4ccccc4C3)n2)n1,121,0.0011,
COC[C@H]1CCCN1c1cc(NCC(F)(F)F)nc(-n2nc(C)cc2C)n1,115,0.024,Stable
COC[C@H]1CCCN1c1cc(Nc2cnccn2)nc(-n2nc(C)cc2C)n1,124,0.069,Stable
Cc1cc(C)n(-c2nc(NCC(F)(F)F)cc(N3CCc4ccccc4C3)n2)n1,64,,
COC[C@H]1CCCN1c1cc(Nc2nccs2)nc(-n2nc(C)cc2C)n1,123,0.0095,Stable
Cc1cc(C)n(-c2nc(Nc3cnccn3)cc(-n3cccn3)n2)n1,117,0.043,
Cc1cc(C)n(-c2nc(Nc3ccccn3)cc(N3CCc4ccccc4C3)n2)n1,95,0.065,
Cc1cc(C)n(-c2nc(Nc3ncccn3)cc(-n3cccn3)n2)n1,23,,
Cc1cc(C)n(-c2nc(Nc3nccs3)cc(N3CCc4ccccc4C3)n2)n1,117,0.066,
COC[C@H]1CCCN1c1cc(Nc2ccccn2)nc(-n2nc(C)cc2C)n1,124,0.045,Stable
COC[C@H]1CCCN1c1cc(Nc2ncccn2)nc(-n2nc(C)cc2C)n1,71,,
